From paper PMC6362252, “A cell-free platform for the prenylation of natural products and application to cannabinoid production” (Nature Communications, 2019)

Tests used:
[1] = target: T1, cannabidiolic acid synthase (CBDAS); CBDA synthase (Cannabis sativa, UniProt A6P6V9); test: HPLC of product CBDA; format: biochemical; details: concentrated expression medium, 25 µM FAD, 5 mM MgCl2, 5 mM KCl, 50 mM Hepes pH 7.0, 30 °C, nonane overlay
T1 construct: native signal peptide removed, starts at residue 28 (NPREN...), pPICZalpha, secreted by Pichia pastoris X33, concentrated culture medium (not purified)

NphB = NphB (Streptomyces sp. CL190, UniProt Q4R2T2, A232S/Y288A); details: M30; otherwise same

SMILES | HPLC of product CBDA [1] | Km (NphB)
CCCCCc1cc(O)c(C/C=C(\C)CCC=C(C)C)c(O)c1C(=O)O [cannabigerolic acid] | we employed CBDA synthase to convert CBGA into CBDA and CBGVA into CBDVA | –
CCCCCc1cc(O)cc(O)c1C(=O)O [olivetolic acid] | – | 200 ± 40 µM
